Tested on: HFD-fed C57BL/6J mice
Assay: Untargeted cortex LC-MS metabolomics
Assay type: in vivo
Conditions: cortex of HFD-fed mice
Method: Plasma and Cortex LC-MS Metabolomics. The left and right sides of the cortex were pooled and ground using liquid nitrogen. Cortex samples (approximately 30 mg) were extracted as previously described with slight modifications. Tissues were homogenized with 600 μL of cold 80% acetonitrile with 0.1% formic acid containing 0.2 μg/mL of dopamine-d4 (Sigma-Aldrich, St Louis, MO, USA) and 0.2 μg/mL of chlorpropamide (Sigma-Aldrich, St Louis, MO, USA) using a counter-top bullet blender for 2 min and centrifuged at 20 000 rpm for 10 minutes. Supernatants were transferred to high performance liquid chromatography (HPLC) vials for analysis.
LC-high-resolution mass spectrometry/MS. Data dependent acquisition in both negative and positive ion mode was conducted using a Shimadzu Nexera UPLC system coupled to an AB SCIEX TripleTOF 5600 mass spectrometer (AB SCIEX, Toronto, Canada). Chromatographic separation was conducted using an Inertsil Phenyl-3 column (4.6×150 mm, 100 Å, 5 μm; GL Sciences, Tokyo, Japan). Spray voltage was −4200 V for negative ion mode and 4500 V for positive ion mode acquisition. The injection volume was 3 μL. Metabolite identifications were performed using Progenesis QI software (V2.4.6911) with METLIN plugin V1.0.6499 (NonLinear Dynamics, United Kingdom). Progenesis QI was used for peak picking, retention time correction, data normalization, peak alignment, and metabolite annotations. Metabolites were detected in both ion modes; the one with the lowest coefficient of variation of the QC was kept.

## COc1cc(O)c(CC=C(C)C)c(O)c1-c1cc(-c2ccc(O)cc2)n(C)n1 [XP, 4-(5-(4-hydroxyphenyl)-1-methyl-1H-pyrazol-3-yl)-5-methoxy-2-(3-methylbut-2-en-1-yl)benzene-1,3-diol]
  Ion intensities, Mean: 1,2-DIPALMITOYL-SN-GLYCEROL: 1513.84
  Ion intensities, Mean: 1-Arachidonoyl-glycerophosphoinositol: 546.96
  Ion intensities, Mean: 1-Palmitoyl-2-linoleoyl PE: 1180.62
  Ion intensities, Mean: 2-Pyrrolidinone: 1222.06
  Ion intensities, Mean: 2′-DEOXYURIDINE 5′-MONOPHOSPHATE: 594.66
  Ion intensities, Mean: 3-Methyl-L-histidine: 518.49
  Ion intensities, Mean: 3-PHOSPHO-GLYCERIC ACID: 2370.20
  Ion intensities, Mean: 5-Acetylamino-6-amino-3-methyluracil: 52.73
  Ion intensities, Mean: 5-Methylcytidine: 9448.98
  Ion intensities, Mean: 12-HYDROXYDODECANOIC-ACID: 2251.29
  Ion intensities, Mean: 20-Hydroxy-PGE2: 7093.39
  Ion intensities, Mean: 27-Hydroxycholesterol: 20090.45
  Ion intensities, Mean: ADENOSINE: 49823.74
  Ion intensities, Mean: ADENOSINE 5′-DIPHOSPHORIBOSE: 4312.21
  Ion intensities, Mean: ADENOSINE 5′-MONOPHOSPHATE: 90459.20
  Ion intensities, Mean: ADENOSINE-5′-DIPHOSPHOGLUCOSE: 1755.31
  Ion intensities, Mean: ADP: 3426.97
  Ion intensities, Mean: AMINOADIPATE: 331.86
  Ion intensities, Mean: ASCORBATE: 1431.15
  Ion intensities, Mean: ASPARTATE: 1333.10
  Ion intensities, Mean: Acetylcarnitine: 12649.68
  Ion intensities, Mean: Acetylcholine: 1745.95
  Ion intensities, Mean: Adenine: 1949.85
  Ion intensities, Mean: Adenylosuccinate: 1016.78
  Ion intensities, Mean: Adenylsuccinic acid: 3152.34
  Ion intensities, Mean: Arachidonic acid: 20901.19
  Ion intensities, Mean: Arachidonic acid ethyl ester: 351.43
  Ion intensities, Mean: Arginine: 2112.34
  Ion intensities, Mean: Aspartic acid: 8729.17
  Ion intensities, Mean: BILIVERDIN: 167.09
  Ion intensities, Mean: CARNITINE: 14584.14
  Ion intensities, Mean: CDP-Ethanolamine: 571.19
  Ion intensities, Mean: CHENODEOXYCHOLATE: 5735.03
  Ion intensities, Mean: CITRATE: 1682.49
  Ion intensities, Mean: CMP: 688.26
  Ion intensities, Mean: Carnosine: 1422.99
  Ion intensities, Mean: Choline: 8899.36
  Ion intensities, Mean: Creatine: 89712.34
  Ion intensities, Mean: Cysteineglutathione disulfide: 1531.40
  Ion intensities, Mean: Cytidine: 846.95
  Ion intensities, Mean: Cytidine 2′,3′-cyclic phosphate: 356.88
  Ion intensities, Mean: Cytidine diphosphate choline (CDPcholine): 2658.54
  Ion intensities, Mean: D-GLUCOSE 6-PHOSPHATE: 138.50
  Ion intensities, Mean: D-Glucaro-1,4-lactone: 1887.47
  Ion intensities, Mean: D-RIBOSE 5-PHOSPHATE: 136.10
  Ion intensities, Mean: DESMOSTEROL: 15551.25
  Ion intensities, Mean: DIHYDROOROTATE: 91.24
  Ion intensities, Mean: Deoxycytidine: 665.81
  Ion intensities, Mean: Deoxyguanosine: 2401.12
  Ion intensities, Mean: Docosahexaenoic acid: 2873.42
  Ion intensities, Mean: Docosenamide: 20845.53
  Ion intensities, Mean: Dodecanedioic acid: 333.82
  Ion intensities, Mean: ERUCIC ACID: 98.90
  Ion intensities, Mean: ETHANOLAMINE PHOSPHATE: 441.02
  Ion intensities, Mean: Ergothioneine: 515.38
  Ion intensities, Mean: Ethyl nicotinate: 81.18
  Ion intensities, Mean: GLUTAMIC ACID: 9048.31
  Ion intensities, Mean: GLUTAMINE: 22688.89
  Ion intensities, Mean: GUANOSINE 5′-MONOPHOSPHATE: 4141.69
  Ion intensities, Mean: Glutamate: 53559.34
  Ion intensities, Mean: Glutathione: 232313.32
  Ion intensities, Mean: Glycerophosphocholine: 124857.55
  Ion intensities, Mean: Guanosine monophosphate: 845.86
  Ion intensities, Mean: HEPTADECANOATE: 23.50
  Ion intensities, Mean: HISTIDINE: 1129.76
  Ion intensities, Mean: Homocarnosine: 689.23
  Ion intensities, Mean: Homoserine: 1034.62
  Ion intensities, Mean: Hydroxybutyric acid: 2833.09
  Ion intensities, Mean: Hydroxyphenethylamine: 4074.28
  Ion intensities, Mean: Hypoxanthine: 88.42
  Ion intensities, Mean: Hypusine: 196.91
  Ion intensities, Mean: ISOCITRIC ACID: 2051.66
  Ion intensities, Mean: ISOLEUCINE: 1578.44
  Ion intensities, Mean: Indoleacetaldehyde: 523.18
  Ion intensities, Mean: Inosine: 1409.62
  Ion intensities, Mean: Inosine 5′-monophosphate (IMP): 5581.09
  Ion intensities, Mean: Isostearic acid: 1901.95
  Ion intensities, Mean: L-2-Amino-5-hydroxypentanoicacid: 2343.03
  Ion intensities, Mean: L-OLEOYL-RAC-GLYCEROL: 2628.37
  Ion intensities, Mean: LACTATE: 3144.80
  Ion intensities, Mean: LAUROYLCARNITINE: 277.93
  Ion intensities, Mean: LEUKOTRIENE B4: 30.73
  Ion intensities, Mean: LYSINE: 107.27
  Ion intensities, Mean: Lathosterol: 14569.93
  Ion intensities, Mean: Lipoamide: 114.97
  Ion intensities, Mean: MALATE: 1664.52
  Ion intensities, Mean: Methionine: 2031.63
  Ion intensities, Mean: Methylthioadenosine: 3521.96
  Ion intensities, Mean: Myristoylcarnitine: 1303.77
  Ion intensities, Mean: N,N-dimethyl-Safingol: 578.09
  Ion intensities, Mean: N-(1-Deoxy-1-fructosyl) serine: 4331.01
  Ion intensities, Mean: N-ACETYL-L-ASPARTICACID: 25975.80
  Ion intensities, Mean: N-ACETYLNEURAMINATE: 1670.91
  Ion intensities, Mean: N-Acetyl-Glutamic acid: 205.45
  Ion intensities, Mean: N-Acetyl-L-alanine: 1909.11
  Ion intensities, Mean: N-Acetylaspartylglutamic acid: 2955.57
  Ion intensities, Mean: N-Acetylglutamine: 519.28
  Ion intensities, Mean: N-Acetylisoputreanine: 153.75
  Ion intensities, Mean: N-Acetyllactosamine: 273.32
  Ion intensities, Mean: N-Linoleoyl GABA: 54.12
  Ion intensities, Mean: N-Methyl-Glutamate: 2772.85
  Ion intensities, Mean: N-a-Acetyl-Arginine: 270.36
  Ion intensities, Mean: NAD: 1268.92
  Ion intensities, Mean: NE,NE,NE-TRIMETHYLLYSINE: 3943.68
  Ion intensities, Mean: Niacinamide: 5120.54
  Ion intensities, Mean: Nicotinamide adenine dinucleotide (NAD): 37985.70
  Ion intensities, Mean: O-Phosphoethanolamine: 302.71
  Ion intensities, Mean: Octadecenoic acid: 169.48
  Ion intensities, Mean: Oleamide: 3677.58
  Ion intensities, Mean: Oxidized glutathione: 4537.22
  Ion intensities, Mean: PALMITATE: 1211.29
  Ion intensities, Mean: PALMITOLEIC ACID: 39.36
  Ion intensities, Mean: PANTOTHENIC ACID: 524.89
  Ion intensities, Mean: PETROSELINIC ACID: 142.54
  Ion intensities, Mean: PHENYLALANINE: 2973.73
  Ion intensities, Mean: PHENYLETHANOLAMINE: 1559.27
  Ion intensities, Mean: Phenylpropionylglycine: 431.18
  Ion intensities, Mean: Phosphocholine: 23860.56
  Ion intensities, Mean: Phosphodimethyl-ethanolamine: 269.92
  Ion intensities, Mean: Pipecolic acid: 516.02
  Ion intensities, Mean: Propionylcarnitine: 540.78
  Ion intensities, Mean: Pyridoxamine-5′-Phosphate: 484.54
  Ion intensities, Mean: RAC-GLYCEROL-L-MYRISTATE: 283.53
  Ion intensities, Mean: S-Adenosylhomocysteine: 473.94
  Ion intensities, Mean: S-Adenosylmethionine: 18868.04
  Ion intensities, Mean: SERINE: 483.60
  Ion intensities, Mean: SUCCINATE: 304.14
  Ion intensities, Mean: Spermic acid 1: 199.76
  Ion intensities, Mean: Spermidine: 7809.52
  Ion intensities, Mean: Sphinganine: 23.16
  Ion intensities, Mean: Sphinganine 1-phosphate: 1966.99
  Ion intensities, Mean: Sphingosine: 1163.81
  Ion intensities, Mean: Stearoylglycerophosphoserine: 1831.40
  Ion intensities, Mean: Succinyladenosine: 217.97
  Ion intensities, Mean: TAURINE: 6801.22
  Ion intensities, Mean: THEOPHYLLINE: 18.56
  Ion intensities, Mean: TRYPTOPHAN: 1355.41
  Ion intensities, Mean: Tetradecanedioic acid: 115.20
  Ion intensities, Mean: Tetrahydrodeoxycortisol: 2674.78
  Ion intensities, Mean: Threoninyl-Alanine: 295.96
  Ion intensities, Mean: Tyrosine: 6818.63
  Ion intensities, Mean: URIDINE: 1161.25
  Ion intensities, Mean: URIDINE 5′-DIPHOSPHOGALACTOSE: 1728.73
  Ion intensities, Mean: URIDINE-5-MONOPHOSPHATE: 3704.01
  Ion intensities, Mean: Undecanedicarboxylic acid: 219.08
  Ion intensities, Mean: Uracil: 225.61
  Ion intensities, Mean: Uridine 5′-diphosphate: 422.30
  Ion intensities, Mean: Xanthine: 155.79
  Ion intensities, Mean: cyclic GMP-AMP: 2077.75
  Ion intensities, Mean: diethyltoluamide: 5.17
  Ion intensities, Mean: docosa-hexaenoic acid: 1911.88
  Ion intensities, Mean: hydroxyhexadecanoyl carnitine: 1048.02
  Ion intensities, Mean: hydroxyvitamin D3: 21210.39
  Ion intensities, Mean: sn-glycero-3-Phosphoethanolamine: 994.53

— US12534439B2, “Xanthohumol derivatives and methods for making and using” (Oregon State University, priority 2021, dated 2026)
